# Source: US12064444B2, “Application of tannic acid in preparation of medicament against respiratory viruses” (priority 2020, dated 2024)
# System: SARS-CoV-2 virus
row,Compound,SI (Selection Index = TC50/IC50)
1,"O=C(OC[C@H]1O[C@@H](OC(=O)c2cc(O)c(O)c(OC(=O)c3cc(O)c(O)c(O)c3)c2)[C@H](OC(=O)c2cc(O)c(O)c(OC(=O)c3cc(O)c(O)c(O)c3)c2)[C@@H](OC(=O)c2cc(O)c(O)c(OC(=O)c3cc(O)c(O)c(O)c3)c2)[C@@H]1OC(=O)c1cc(O)c(O)c(OC(=O)c2cc(O)c(O)c(O)c2)c1)c1cc(O)c(O)c(OC(=O)c2cc(O)c(O)c(O)c2)c1 [Tannic acid, tannic acid]",7343.75
2,CCC(CC)COC(=O)[C@H](C)N[P@](=O)(OC[C@H]1O[C@@](C#N)(c2ccc3c(N)ncnn23)[C@H](O)[C@@H]1O)Oc1ccccc1 [Remdesivir],162.21
